From PubChem BioAssay (NCI) come the findings set out here.

Values joined by “and” are separate entries in the source; they are usually repeats but may differ in a detail not shown here. Equal values may be shown once.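 The compound was tested at five concentrations on cells cultured in 96-well plates, with a 48-hour exposure period. GI50: concentration for 50% inhibition of growth. At the TGI there is no net growth.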

Among the test systems are A498 renal; KM20L2 colon; SNB-78 CNS; DMS 114 small cell lung; XF 498 CNS; HCC-2998 colon; DMS 273 small cell lung; M19-MEL melanoma; LXFL 529 NSCLC; DLD-1 colon; HOP-18 NSCLC; RXF-631 renal.
Holding throughout (assay): DTP human tumour cell line panel, 48 h

Usually TGI stands for the concentration at which net growth stops. The low end stands for greater sensitivity of the cells, the high end for lower sensitivity of the cells. Consider `COc1c(OC)c(N)c2cc(C)c(=O)c(C)cc2c1N`, for which the TGI with A498 renal, in the assay with KM20L2 colon, with SNB-78 CNS, in the assay with DMS 114 small cell lung, in the assay on XF 498 CNS and in the assay on HCC-2998 colon was > 100 µM each time. The TGI in the assay on DMS 273 small cell lung, in the assay with M19-MEL melanoma, in the assay with LXFL 529 NSCLC, in the assay on DLD-1 colon and with HOP-18 NSCLC was > 100 µM in each case.

In the case of `C=CN1C(=O)OC[C@@H]1c1ccccc1`, the TGI in the assay on A498 renal, in the assay with KM20L2 colon, in the assay with SNB-78 CNS, in the assay on DMS 114 small cell lung, in the assay on XF 498 CNS and with HCC-2998 colon was > 100 µM in each case. The TGI was 50.7 µM with DMS 273 small cell lung; > 100 µM with M19-MEL melanoma; > 100 µM with LXFL 529 NSCLC; > 100 µM in the assay with RXF-631 renal; > 100 µM in the assay with DLD-1 colon; > 100 µM in the assay on HOP-18 NSCLC.

Turning to `COc1cc(Cl)cc(N(O)C(C)=O)c1OCc1ccccc1`, the concentration for total growth inhibition (TGI) with A498 renal was > 100 µM; in the assay with KM20L2 colon, > 100 µM; with SNB-78 CNS, > 100 µM; in the assay on DMS 114 small cell lung, 71.5 µM; in the assay on XF 498 CNS it was > 100 µM; in the assay on HCC-2998 colon it was > 100 µM. Further, the TGI with DMS 273 small cell lung, in the assay on M19-MEL melanoma, in the assay on LXFL 529 NSCLC, in the assay with DLD-1 colon and with HOP-18 NSCLC was > 100 µM in each case.

Usually GI50 stands for the concentration at which growth is held to half of that of the control. In the case of `COc1cc(C2c3cc4c(cc3[C@@H](NCCN3CCCCC3)C3COC(=O)[C@H]23)OCO4)cc(OC)c1O` (stereo not given in full), the TGI in the assay on A498 renal was 0.904 µM and 1.47 µM; with KM20L2 colon, 8.14 µM and 11.5 µM; in the assay on SNB-78 CNS it was 8.09 µM and 23.3 µM; with DMS 114 small cell lung, 10.9 µM and 16 µM; in the assay on XF 498 CNS, 4.01 µM and 4.2 µM; in the assay on HCC-2998 colon it was 1.97 µM and 2.37 µM. The TGI with DMS 273 small cell lung is 1.27 µM and 1.44 µM; with M19-MEL melanoma it was 5.4 µM and 4.14 µM; in the assay with LXFL 529 NSCLC, 14.5 µM and 15.2 µM; with DLD-1 colon it was 6.78 µM and 10.2 µM; in the assay on HOP-18 NSCLC, 3.73 µM and 29.4 µM. For the same compound, the GI50 in the assay on DMS 114 small cell lung was 0.51 µM and 1.64 µM; in the assay with XF 498 CNS, 0.585 µM and 1.27 µM; in the assay on HCC-2998 colon, 0.427 µM and 1.09 µM.

Consider `O=C(O)C12C3C4C1C1C2C3C1(Br)C41OCCO1` (stereo not given), for which the TGI with A498 renal, in the assay with KM20L2 colon, in the assay with SNB-78 CNS, with DMS 114 small cell lung, in the assay on XF 498 CNS and in the assay with HCC-2998 colon was > 100 µM in each case. In addition, the TGI with DMS 273 small cell lung, in the assay on M19-MEL melanoma, in the assay on LXFL 529 NSCLC, with DLD-1 colon and with HOP-18 NSCLC was > 100 µM throughout.

`O/N=C/c1cc2c(cc1Br)OCO2`: the TGI in the assay with A498 renal, in the assay with KM20L2 colon, in the assay with SNB-78 CNS, with HCC-2998 colon, in the assay on DMS 273 small cell lung and in the assay on M19-MEL melanoma was > 100 µM in each case. The TGI with LXFL 529 NSCLC, with RXF-631 renal, in the assay on DLD-1 colon and in the assay with HOP-18 NSCLC was > 100 µM throughout.

Regarding `CCC(CC)n1cc(C(=O)NC(=O)NCCCCCOC(=O)CCCCCCCCCCC(=O)OCCCCCNC(=O)NC(=O)c2cn(C(CC)CC)c(=O)[nH]c2=O)c(=O)[nH]c1=O`, the TGI in the assay on A498 renal, in the assay with KM20L2 colon, in the assay on SNB-78 CNS, in the assay with DMS 114 small cell lung, with XF 498 CNS and in the assay with HCC-2998 colon was > 100 µM in each case. The concentration for total growth inhibition (TGI) in the assay with DMS 273 small cell lung, in the assay with M19-MEL melanoma, in the assay on LXFL 529 NSCLC, in the assay with RXF-631 renal, in the assay on DLD-1 colon and with HOP-18 NSCLC was > 100 µM in each case.

Regarding `O=C(Cc1ccccc1)NN1C(=O)C(Cl)C1c1ccc([N+](=O)[O-])cc1` (stereo not given), the TGI in the assay on KM20L2 colon, in the assay on SNB-78 CNS, in the assay with DMS 114 small cell lung, in the assay on XF 498 CNS, in the assay with HCC-2998 colon and in the assay on DMS 273 small cell lung was > 100 µM throughout. Further, the TGI with M19-MEL melanoma, in the assay with LXFL 529 NSCLC, with DLD-1 colon and in the assay on HOP-18 NSCLC was > 100 µM each time.

Take `C=CCN(N=O)C(=O)N(CCCC(NC(C)=O)C(=O)NCc1ccccc1)Cc1ccccc1` (stereo not given): the TGI in the assay on A498 renal, with KM20L2 colon, with DMS 114 small cell lung, in the assay with XF 498 CNS, with DMS 273 small cell lung and in the assay with M19-MEL melanoma was > 100 µM each time. Also, the total growth inhibition concentration (TGI) in the assay on LXFL 529 NSCLC and in the assay on RXF-631 renal was > 100 µM in each case.

Consider `CCn1c2ccccc2c2ccc3c(c21)C(=O)c1ccccc1C3=O`, for which the TGI with A498 renal, in the assay with KM20L2 colon, with SNB-78 CNS, in the assay with DMS 114 small cell lung, with XF 498 CNS and in the assay with HCC-2998 colon was > 100 µM throughout. Further, the TGI is > 100 µM in the assay on DMS 273 small cell lung; 60.6 µM in the assay on M19-MEL melanoma; > 100 µM in the assay with LXFL 529 NSCLC; > 100 µM in the assay with DLD-1 colon; > 100 µM with HOP-18 NSCLC.
